Entries after “also recorded” stand apart in the source; their conditions may differ.
What was measured:
[1] = system: MMTV-neu transgenic mouse tumors; assay: MMTV-neu transgenic mouse tumor growth; type: in vivo
Experimental: In a second study, MMTV-neu transgenic mice were treated with tacrolimus 3 mg/kg/daily or no treatment. Treatment began when tumors were palpable and continued for 21 days. Tumor volumes were monitored with serial ultrasounds. A two-tailed T-test was used to determine the difference between growth rates of the tumors between treated and non-treated tumors.

2H11 cells = assay: 2H11 endothelial MATRIGEL tube formation assay; type: cell-based, mouse; settings: for inhibition of SFRP2 stimulated endothelial tube formation: SFRP2 stimulated 2H11 cells; for inhibition of VEGF stimulated endothelial tube formation: VEGF stimulated 2H11 cells
Source text: The ability for tacrolimus to inhibit SFRP2 and VEGF stimulated 2H11 endothelial tube formation in vitro was studied in a MATRIGEL tube formation assay.

[2] = system: mouse endothelial cells (MEC); assay: Endothelial cell tube formation assay, MEC cells; type: cell-based; settings: for inhibition of SFRP2 induced tube formation: SFRP2 7 nM or 30 nM, tacrolimus 1 μM-100 uM, 8 hours
Experimental: The tube formation properties of SFRP2 on mouse endothelial cells (MEC) cells were evaluated using an endothelial cell tube formation assay. ECMATRIX (Chemicon) was thawed, diluted and solidified in a 96 well plate according to the manufacturer's instructions. 1×10^4 cells/well in 150 μl of DMEM (celigro) with 10% FBS (HyClone) and a concentration range (7-7000 pM) of SFRP2 (US Biologicals) were seeded onto the matrix and returned to 37° C., 5% CO2 for 8 hours. Images were acquired using the Nikon Eclipse TS100 microscope at 4× magnification with a Nikon CoolPix 995 digital camera. Results were quantified by counting the number of branch points.
(§1) To evaluate whether tacrolimus inhibits SFRP2 induced tube formation, MEC cells were treated as above with SFRP2 7 nM with and without tacrolimus 100 uM for 8 hours and branch points were determined as described above. To evaluate whether tacrolimus reversed established tubes, cells were incubated with SFRP2 7 nM for 8 hours and then BSA or tacrolimus 100 μM was added to SFRP2 treated cells for an additional 4 hours, and then the number of branch points were counted. […] Tacrolimus was not cytotoxic to MEC cells, as only 5% of tacrolimus-treated cells took up trypan blue dye (data not shown).
(§2) The tube formation properties of SFRP2 on MEC cells were evaluated using an endothelial cell tube formation assay. ECMATRIX (Chemicon) was thawed, diluted and solidified in a 96 well plate according to the manufactures instructions. 1×10^4 cells/well in 150 μl of DMEM (cellgro) with 10% FBS (HyClone) and a concentration range (3-3000 pM) of SFRP2 (US Biologicals) were seeded onto the matrix and returned to 37° C., 5% CO2 for 8 hours. Images were acquired using the Nikon Eclipse TS100 microscope at 4× magnification with a Nikon CoolPix 995 digital camera. Results were quantified by counting the number of branch point. To evaluate whether tacrolimus inhibits SFRP2 induced tube formation, MEC cells were treated as above with SFRP2 30 nM with and without tacrolimus (1 μM-100 uM) for 8 hours and branch points were determined as described above. To evaluate whether inhibitors of SFRP2-mediated angiogenesis would inhibit the growth of SVR tumor cells, SVR cells were treated with tacrolimus (1 μM-100 μM) or with a rabbit polyclonal antibody to SFRP-2 (H-140) (Santa Cruz Biotechnology, Santa Cruz, Calif., catalogue 4 sc-13940) in the tube formation assay.

MEC cells = assay: Trypan blue uptake (cytotoxicity) in MEC cells; type: cell-based, mouse; settings: tacrolimus-treated MEC cells
Experimental: as §1

[3] = system: SVR angiosarcoma xenografts; assay: SVR angiosarcoma xenografts in nude mice; type: in vivo; settings: for growth of SVR angiosarcoma xenografts: nude mice
Experimental: To test the ability of tacrolimus to inhibit angiogenesis in vivo, SVR mouse angiosarcoma cells (0.5×10^6) were injected into the flank of 6-week-old nude male mice obtained from Charles River Breeding Laboratories. Treatment was initiated on the day after inoculation. Mice received 3 mg/kg/daily tacrolimus or vehicle control suspended in 20% Intralipid (Baxter Healthcare, Deerfield, Ill.) in a total volume of 0.3 ml intraperitoneally (i.p.), and were treated daily for 19 days. Serial caliper measurements of perpendicular diameters were used to calculate tumor volume using the following formula: (shortest diameter)^2×(longest diameter)×0.52. Differences in tumor volume over time were analyzed with a two way ANOVA. A P value of ≦0.05 indicated a statistically significant reduction in tumor growth of the treated group compared to the control group. […] Treatment with tacrolimus reduced mean tumor volume by 46% at day 19 (589±129 mm^3 vs 315±93 mm^3, two-way ANOVA, p=0.04, FIG. 26).
The ability of a monoclonal antibody recognizing SFRP2 to inhibit tumor growth in vivo was tested in a nude mouse assay. The SFRP2 MAb subclone 80.8.6 was first tested with SVR angiosarcoma xenografts. Six week old nude mice were injected with 1×10^6 SVR angiosarcoma cells. The day after injections treated mice received SFRP2 MAb(80.8.6) 4 mg/kg i.v. twice weekly (n=5), and controls received equal volumes of buffer. At day 14 there was a 65% decrease in tumor volume (*p=0.03, two-tailed student's t-test) (FIG. 34).

SVR angiosarcoma cells = assay: SVR angiosarcoma cell tube formation assay; type: cell-based, mouse; settings: for inhibition of SVR tube formation by sera compared to control mouse sera: sera at 1:100 dilution
Experimental: as §2
As a further test of the contribution of SFRP2 to endothelial tube formation, it was evaluated whether loss of function of SFRP2 would inhibit SVR angiosarcoma tube formation. This was studied two different ways, first with a blocking antibody to SFRP2, and then using siRNA to SFRP2. SVR cells were plated in MATRIGEL in a tube formation assay and treated with a polyclonal antibody to SFRP2. […] After 72 h of transfection using LIPOFECTAMINE™ RNAiMAX Transfection reagent (Invitrogen) according to the manufacturer's protocol, cells were harvested and ready for Western blot analyses and tube formation assay.
Monoclonal antibodies for the epitope corresponding to AbB (AA202-AA220) were prepared. […] The angiosarcoma cells were suspended in 150 μl of antibody containing growth media for 90 different samples and control media, After 6 hours, pictures were taken and the number of branch points for each well was counted. […]

[4] = system: MDA-MB-231 breast cancer xenografts; assay: MDA-MB-231 breast cancer xenografts in nude mice; type: in vivo; settings: 4 mg/kg i.v. twice weekly
Experimental: The SFRP2 MAb subclone 80.8.6 was next tested with MDA-MB-231 breast cancer xenografts. Six week old female nude mice were injected with 1×10^6 MDA-MB-231 cells. After 4 weeks, when tumors were palpable, mice received SFRP2 MAb (80.8.6) 4 mg/kg i.v. twice weekly (n=12), and controls received equal volumes of buffer. At day 8 the median tumor volume for controls was 1200 mm^3, and for SFRP2 MAb treated mice was 580 mm^3, which represents a 52% decrease in tumor volume (p=0.04, two-tailed student's t-test).

[5] = tacrolimus 3 mg/kg/daily i.p., day 19

C=CC[C@@H]1/C=C(\C)C[C@H](C)C[C@H](OC)[C@H]2O[C@@](O)(C(=O)C(=O)N3CCCC[C@H]3C(=O)O[C@H](/C(C)=C/[C@@H]3CC[C@@H](O)[C@H](OC)C3)[C@H](C)[C@@H](O)CC1=O)[C@H](C)C[C@@H]2OC [tacrolimus]
growth rate of MMTV-neu tumors ([1]; mouse, in vivo): inhibits the growth rate
signs of toxicity (diarrhea, infection, lethargy, weight loss) ([1]; tacrolimus 3 mg/kg/daily, 21 days): no signs of toxicity
reduction in tumor growth rate ([1]; tacrolimus 3 mg/kg/daily, day 21): 59%
inhibition of SFRP2 stimulated endothelial tube formation (2H11 cells): inhibits SFRP2-induced mouse endothelial cell tube formation
inhibition of SFRP2 stimulated endothelial tube formation (2H11 cells; listed as Tacrolimus): inhibited endothelial tube formation
inhibition of VEGF stimulated endothelial tube formation (2H11 cells): inhibits VEGF-induced mouse endothelial cell tube formation
inhibition of VEGF stimulated endothelial tube formation (2H11 cells; listed as Tacrolimus): inhibited endothelial tube formation
inhibition at 1 µM ([2]; Mus musculus, Endothelial cell, tacrolimus 1 μM, SFRP2 30 nM, read-out: inhibition of SFRP2 induced tube formation): 64%
reversal of established SFRP2-induced tubes ([2]; SFRP2 7 nM 8 hours, then tacrolimus 100 μM for 4 hours): reversed SFRP2-induced tube formation; also recorded: reverses SFRP2-induced mouse endothelial cell tube formation
inhibition of SFRP2 induced tube formation [2]: inhibits SFRP2-induced mouse endothelial cell tube formation; also recorded: inhibits tube formation in SFRP2-induced MEC cells
inhibition of SFRP2 induced tube formation ([2]; listed as Tacrolimus): inhibited SFRP2 induced tube formation
treated cells that took up trypan blue dye (MEC cells): 5%
growth of SVR angiosarcoma xenografts [3]: effective at suppressing the growth; also recorded: inhibits the growth
signs of toxicity (diarrhea, infection, lethargy, weight loss) ([3]; tacrolimus 3 mg/kg/daily i.p., 19 days): no signs of toxicity
mean tumor volume [3, 5]: 315±93 mm^3
reduction of mean tumor volume [3, 5]: 46%
inhibition of SVR angiosarcoma tube formation (SVR angiosarcoma cells): inhibited by tacrolimus; also recorded: inhibits tube formation in SVR angiosarcoma cells

AbB: sera from mouse immunized against SFRP2 epitope amino acids AA202-AA220 (EITYINRDTKIILETKSKTC)
inhibition of SVR tube formation by sera compared to control mouse sera (SVR angiosarcoma cells): inhibited SVR tube formation; also recorded: greatest inhibition

AbC: sera from mouse immunized against SFRP2 epitope amino acids AA270-AA295 (ITSVKRWQKGQREFKRISRSIRKLQC)
inhibition of SVR tube formation by sera compared to control mouse sera (SVR angiosarcoma cells): inhibited SVR tube formation; also recorded: greatest inhibition

B1: SFRP2 MAb (80.8.6): monoclonal antibody produced by hybridoma cell line UNC 68-80 (subclone 80.8.6), ATCC PTA-11762; VH SEQ ID NO:13, VL SEQ ID NO:15 (antibody, V domains shown)
VH: QVQLQQPGAELVQPGASVMLSCKASGFTFTRYWWHWVRQTPGRGLEWIGRIDPNSGTTRFIEKFKTKATLTVDKPSSTAYMHLSSLTSEDSAVYYCARWGPYYGYAMDYWGPGTSVTVSS
VL: QIVLTQSPAIMSASPGQKVTITCSASSSVTYMHWYQQKLGSSPKLWIYDTSRLAPGSPARFSGSGSGTSYSLTISSMETEDAASYFCHQWSTYPPTFGTGTKLEIQ
modifications: Heavy chain variable region sequence; Light chain variable region sequence
toxicity or weight loss [4]: No toxicity or weight loss
decrease in tumor volume ([4]; day 8): 52%
median tumor volume ([4]; day 8): 580 mm^3
toxicity or weight loss ([3]; 4 mg/kg i.v. twice weekly): No toxicity or weight loss
decrease in tumor volume ([3]; 4 mg/kg i.v. twice weekly, day 14): 65%
growth of SVR angiosarcoma xenografts [3]: inhibits the growth

Reference: patent US9073982B2, “Targets for regulation of angiogenesis” (The University of North Carolina at Chapel Hill, priority 2008, dated 2015)
